Source: ChEMBL document CHEMBL3525998, “Metabolism of saikosaponin a in rats: diverse oxidations on the aglycone moiety in liver and intestine in addition to hydrolysis of glycosidic bonds” (Drug Metab Dispos, 2013)

How the values were obtained:
Assay type in all cases: ADME, organism-based
[1] = Drug excretion in Sprague-Dawley rat bile at 50 mg/kg, po administered through gavage by LC-DAD-IT-TOF-MS analysis; design: dose 50 mg/kg, route oral; settings: in vivo
[2] = species: Rattus norvegicus; experiment: Drug metabolism in Sprague-Dawley rat assessed as retention time by LC-DAD-IT-TOF-MS analysis
[3] = Drug recovery in po dosed rat excreted feces measured over 0 to 24 hrs after drug administration by HPLC analysis relative to starting drug dose; settings: faeces, read-out: Drug recovery
[4] = Drug excretion in Sprague-Dawley rat feces assessed as metabolite 3-keto-saikogenin f level at 15 mg/kg, iv by LC-DAD-IT-TOF-MS analysis; design: dose 15 mg/kg, route intravenous; settings: in vivo
[5] = Drug excretion in Sprague-Dawley rat bile assessed as metabolite delta1-saikogenin f level at 15 mg/kg, iv by LC-DAD-IT-TOF-MS analysis; design: dose 15 mg/kg, route intravenous; settings: in vivo
[6] = Drug excretion in Sprague-Dawley rat urine assessed as metabolite delta1-saikogenin f level at 15 mg/kg, iv by LC-DAD-IT-TOF-MS analysis; design: dose 15 mg/kg, route intravenous; settings: in vivo
[7] = Drug excretion in Sprague-Dawley rat feces assessed as metabolite saikogenin f-27-oic acid level at 15 mg/kg, iv by LC-DAD-IT-TOF-MS analysis; design: dose 15 mg/kg, route intravenous; settings: in vivo
[8] = Drug excretion in Sprague-Dawley rat feces at 50 mg/kg, po administered through gavage by LC-DAD-IT-TOF-MS analysis; design: dose 50 mg/kg, route oral; settings: in vivo
[9] = tested on: Plasma; experiment: Drug metabolism in Sprague-Dawley rat plasma assessed as metabolite hydroxysaikosaponin a formation at 50 mg/kg, po administered through gavage by LC-DAD-IT-TOF-MS analysis; design: dose 50 mg/kg, route oral; settings: in vivo
[10] = Drug excretion in Sprague-Dawley rat bile assessed as metabolite hydroxysaikosaponin a level at 50 mg/kg, po administered through gavage by LC-DAD-IT-TOF-MS analysis; design: dose 50 mg/kg, route oral; settings: in vivo
[11] = tested on: Plasma; experiment: Drug metabolism in Sprague-Dawley rat plasma assessed as metabolite prosaikogenin f formation at 50 mg/kg, po administered through gavage by LC-DAD-IT-TOF-MS analysis; design: dose 50 mg/kg, route oral; settings: in vivo
[12] = Drug excretion in Sprague-Dawley rat bile assessed as metabolite saikogenin f level at 50 mg/kg, po administered through gavage by LC-DAD-IT-TOF-MS analysis; design: dose 50 mg/kg, route oral; settings: in vivo
[13] = Drug excretion in Sprague-Dawley rat urine assessed as metabolite saikogenin f level at 50 mg/kg, po administered through gavage by LC-DAD-IT-TOF-MS analysis; design: dose 50 mg/kg, route oral; settings: in vivo
[14] = Drug excretion in Sprague-Dawley rat urine assessed as metabolite 3-keto-saikogenin f level at 50 mg/kg, po administered through gavage by LC-DAD-IT-TOF-MS analysis; design: dose 50 mg/kg, route oral; settings: in vivo
[15] = tested on: Plasma; experiment: Drug metabolism in Sprague-Dawley rat plasma assessed as metabolite saikogenin f-27-oic acid formation at 50 mg/kg, po administered through gavage by LC-DAD-IT-TOF-MS analysis; design: dose 50 mg/kg, route oral; settings: in vivo
[16] = Drug excretion in Sprague-Dawley rat feces assessed as metabolite saikogenin f-27-oic acid level at 50 mg/kg, po administered through gavage by LC-DAD-IT-TOF-MS analysis; design: dose 50 mg/kg, route oral; settings: in vivo
[17] = tested on: Plasma; experiment: Drug metabolism in Sprague-Dawley rat plasma assessed as metabolite hydroxysaikosaponin a formation at 15 mg/kg, iv by LC-DAD-IT-TOF-MS analysis; design: dose 15 mg/kg, route intravenous; settings: in vivo
[18] = Drug excretion in Sprague-Dawley rat bile assessed as metabolite prosaikogenin f level at 15 mg/kg, iv by LC-DAD-IT-TOF-MS analysis; design: dose 15 mg/kg, route intravenous; settings: in vivo
[19] = tested on: Plasma; experiment: Drug metabolism in Sprague-Dawley rat plasma assessed as metabolite saikogenin f formation at 15 mg/kg, iv by LC-DAD-IT-TOF-MS analysis; design: dose 15 mg/kg, route intravenous; settings: in vivo
[20] = tested on: Plasma; experiment: Drug metabolism in Sprague-Dawley rat plasma assessed as metabolite 3-keto-saikogenin f formation at 15 mg/kg, iv by LC-DAD-IT-TOF-MS analysis; design: dose 15 mg/kg, route intravenous; settings: in vivo

Structure (SMILES): C[C@H]1O[C@@H](O[C@H]2CC[C@@]3(C)[C@@H](CC[C@]4(C)[C@@H]3C=C[C@]35OC[C@@]6(CCC(C)(C)C[C@H]63)[C@@H](O)C[C@]54C)[C@]2(C)CO)[C@H](O)[C@@H](O[C@@H]2O[C@H](CO)[C@@H](O)[C@H](O)[C@H]2O)[C@H]1O [SAIKOSAPONIN A]
- Drug excretion [1]: metabolite_detected
- Retention_time [2]: 39.9 min
- dose excreted [3]: > 50%
- Drug excretion [4]: metabolite_not_detected
- Drug excretion [5]: metabolite_not_detected
- Drug excretion [6]: metabolite_not_detected
- Drug excretion [7]: metabolite_detected
- Drug excretion [8]: metabolite_detected
- Drug metabolism [9]: metabolite_not_detected
- Drug excretion [10]: metabolite_not_detected
- Drug metabolism [11]: metabolite_detected
- Drug excretion [12]: metabolite_not_detected
- Drug excretion [13]: metabolite_detected
- Drug excretion [14]: metabolite_detected
- Drug metabolism [15]: metabolite_not_detected
- Drug excretion [16]: metabolite_detected
- Drug metabolism [17]: metabolite_not_detected
- Drug excretion [18]: metabolite_detected
- Drug metabolism [19]: metabolite_not_detected
- Drug metabolism [20]: metabolite_not_detected
